Reference: patent US7655224B2, “Neural stem cells and use thereof for brain tumor therapy” (priority 1998, dated 2010)

Experiments:
[1] = test system: neural stem cells (clone C17.2); test: Cytopathic effect and morphology of neural stem cells (drug treatment, virus infection); details: for cell morphology: cells below confluency, mimosine 400 μM
Method: Neural stem cells were grown in 24-well plates until they reached confluency (approximately 400,000 cells/well). Medium was changed every third day. […] Medium was replaced on day 4 and day 6. […] Cell culture medium was changed again on days 10, 13 and 17. […] Cell morphology and cells/well for different treatment conditions were determined in duplicate on days 0, 4, 7, 10, 13, and 17. The number of cells/well was determined using a Coulter Counter (Coulter Electronics, Hialeah, Fla.).
Virus titers in the conditioned medium—and in some experiments also in cell lysates—were determined by standard plaque tests on Vero cells. […] Also, the influence of the expression of viral proteins VP 16 and ICP6 (RR), mediated by infection with amplicon vectors, on the replication of hrR3 mutant virus was determined at different time points after infection of neural stem cells. Stocks of helper-free packaged amplicons HSV 16. HSVRR and HSVIacZ (100 μl each) were added to the wells on day 7, 10, or 13. Three days later titers of hrR3 in the medium were determined by plaque assay.
The genotype of hrR3 is RR- LacZ^+ [Goldstein and Weller, Virology 166: 141-51, 1988] with the lacZ gene under control of the ICP6 early viral promoter. RRP450 was derived from hrR3 by replacement of the lacZ gene with the cytochrome P450 gene [Chase et al., Nat Biotechnol 16: 444-8, 1998].

[2] = test system: neural stem cells (clone C17.2); test: Cell number and growth of neural stem cells under mimosine and GCV; assay type: cell-based, murine
Excerpt: Medium was changed every third day. […] Medium was replaced on day 4 and day 6.
In contrast, untreated neural stem cell cultures continued proliferating over the same period, reaching a density of 1.7×10^6 cells/ml on day 10. […] Re-growth of neural stem cells occurred at a faster rate if cells were additionally rinsed and split 1:8 after removal of drug(s) on day 10.

[3] = test system: hrR3; test: Dexamethasone treatment of hrR3-infected, mimosine/GCV-treated neural stem cell cultures; assay type: cell-based, HSV-1; details: dexamethasone 10^-7 M on day 10; detection level

| Compound | cell morphology [1] | cell viability ([2]; 5 μM added from day 6, compared to mimosine alone) | virus titers in the media and cell lysates [3] | virally induced CPE in presence of drug [1] | CPE ([1]; day 13, infected day 7, split 1:8 into drug-free media day 10) | CPE ([1]; day 13, infected, not split) | CPE ([1]; day 17, infected and split) | CPE ([1]; day 17, infected, non-split) | cytopathic effect associated with virus replication ([1]; infection at MOI of 10) | cytopathic effect of drug alone ([1]; uninfected) | treatment time at which block of cell division and viral replication is reversible [2] [days] | Cells/well ([2]; 400 μM, 4 and 7 days after beginning of treatment) | cell number of infected cultures kept on treatment ([2]; infected MOI 1 day 7, day 13 and 17) | growth after removal of drug ([2]; removed on day 10) |
| --- | --- | --- | --- | --- | --- | --- | --- | --- | --- | --- | --- | --- | --- | --- |
| Nc1nc(O)c2ncn(COC(CO)CO)c2n1 [GCV, ganciclovir] | did not change this morphology | did not significantly affect cell viability | – | – | – | – | – | – | – | – | – | – | – | – |
| C[C@@H]1C[C@H]2[C@@H]3CCC4=CC(=O)C=C[C@]4(C)[C@@]3(F)[C@@H](O)C[C@]2(C)[C@@]1(O)C(=O)CO [dexamethasone] | – | – | < 10 pfu/100,000 cells | – | – | – | – | – | – | – | – | – | – | – |
| NC(Cn1ccc(=O)c(O)c1)C(=O)O (stereo not drawn) [mimosine] | developed extensions and a more neuronal shape | – | – | prevented virally induced CPE | some cytopathic effect | no CPE | extensive CPE | some CPE | typical cytopathic effect | did not induce a significant cytopathic effect | ≥ 13 | around 400,000 cells | remained at the same cell number | growth of neural stem cells resumed |
